Source: US10653699B2, “Controlled-release tozadenant formulations” (BIOTIE THERAPIES, INC., priority 2015, dated 2020)

What was measured:
[1] = Clinical study of immediate-release tozadenant: treatment-emergent adverse events, Cmax and Css (Table 18); format: in vivo, human; conditions: for Total AEs/subject / concentration at 14 day / Cmax: immediate-release formulation; for Total Number of AEs: immediate-release formulation (N = 6); for concentration at 14 day / Cmax: human, plasma; for Cmax: read-out: Cmax (ng/mL) at Day 14
Method: Advantages of controlled-release formulations compared to immediate-release formulations include: lower incidence of adverse events; improved tolerability; reduced frequency of dosing; and improved compliance due to reduced frequency of dosing.
An example of an efficacious dose of tozadenant is 120 mg of an immediate-release formulation administered twice a day (BID). […] Thus, a CR formulation could be designed to achieve an efficacious Css lower than the plasma levels (Cmax) that result in AEs. An efficacious CR formulation would preferably result in a Css in the range of 0.5-3.0 μg/mL.

[2] = Treatment-emergent adverse events and tozadenant plasma Cmax by dose in patients (Table 19); format: in vivo, human; conditions: for Cmax at 6 week / Cmax: human, oral; for Cmax at 6 week: maximum plasma concentration in group of 63-75 patients, time since last dose unknown; for Cmax: plasma, read-out: Cmax (ng/mL) at ~5 hr postdose at Day 1
Source text: Table 19 summarizes the dose response of AEs observed in patients taking tozadenant alongside the plasma Cmax. A clear trend of increasing AEs and discontinuation of therapy is seen with doses that result in higher tozadenant Cmax. A controlled-release formulation can be used to achieve the drug levels (Css) that are therapeutically effective while avoiding the high plasma Cmax and AEs associated with high doses of an IR formulation.

[3] = Physical characterization of tozadenant API; format: physicochemical
Source text: The active pharmaceutical ingredient (API) was very fine, with ˜60% fines. […] The observed loss upon drying indicated a low amount of water and volatile matter in API.

COc1ccc(N2CCOCC2)c2sc(NC(=O)N3CCC(C)(O)CC3)nc12 [tozadenant, 4-hydroxy-4-methyl-piperidine-1-carboxylic acid (4-methoxy-7-morpholin-4-yl-benzothiazol-2-yl)-amide]
Css ([1]; 120 mg of an immediate-release formulation administered twice a day (BID)): about 2.4 μg/mL
Total AEs/subject ([1]; 120 BID): 0.7
Total Number of AEs ([1]; 120 BID): 4
Total AEs/subject ([1]; 240 BID): 4.0
Total Number of AEs ([1]; 240 BID): 24
Total AEs/subject ([1]; 240 QD): 2.7
Total Number of AEs ([1]; 240 QD): 16
Total AEs/subject ([1]; 480 QD): 5.0
Total Number of AEs ([1]; 480 QD): 30
concentration at 14 day ([1]; 120 mg, 120 BID): 2.36 µg/mL
Cmax ([1]; 120 mg, 120 BID): 2970 ng/mL
concentration at 14 day ([1]; 240 mg, 240 BID): 4.81 µg/mL
Cmax ([1]; 240 mg, 240 BID): 6160 ng/mL
concentration at 14 day ([1]; 240 mg, 240 QD): 2.08 µg/mL
Cmax ([1]; 240 mg, 240 QD): 3440 ng/mL
concentration at 14 day ([1]; 480 mg, 480 QD): 3.5 µg/mL
Cmax ([1]; 480 mg, 480 QD): 5120 ng/mL
Patients discontinuing due to AEs, % ([2]; 60 mg BID): 8%
Patients with no AE, % ([2]; 60 mg BID): 28%
Patients with ≥ 1 AE related to study drug, % ([2]; 60 mg BID (N = 85)): 44%
Patients discontinuing due to AEs, % ([2]; 120 mg BID): 12%
Patients with no AE, % ([2]; 120 mg BID): 26%
Patients with ≥ 1 AE related to study drug, % ([2]; 120 mg BID (N = 82)): 55%
Patients discontinuing due to AEs, % ([2]; 180 mg BID): 12%
Patients with no AE, % ([2]; 180 mg BID): 21%
Patients with ≥ 1 AE related to study drug, % ([2]; 180 mg BID (N = 85)): 55%
Patients discontinuing due to AEs, % ([2]; 240 mg BID): 20%
Patients with no AE, % ([2]; 240 mg BID): 18%
Patients with ≥ 1 AE related to study drug, % ([2]; 240 mg BID (N = 84)): 63%
Cmax at 6 week ([2]; 60 mg BID): 2.57 µg/mL
Cmax ([2]; 60 mg BID): 424 ng/mL
Cmax at 6 week ([2]; 120 mg BID): 3.91 µg/mL
Cmax ([2]; 120 mg BID): 680 ng/mL
Cmax at 6 week ([2]; 180 mg BID): 5.46 µg/mL
Cmax ([2]; 180 mg BID): 999 ng/mL
Cmax at 6 week ([2]; 240 mg BID): 6.63 µg/mL
Cmax ([2]; 240 mg BID): 1150 ng/mL
Bulk density [3]: 0.1948 g/mL
Compressibility index [3]: 35.065
Fines Portion (# 60 pass portion) [3]: 60.00%
Granular Portion (# 60 Retain portion) [3]: 40.00%
Hausner ratio [3]: 1.5406
Tapped density [3]: 0.3000 g/mL
Particle size distribution (% Retention) ([3]; ASTM # 20 mesh (841μ)): 0.00%
Particle size distribution (% Retention) ([3]; ASTM # 40 mesh (420μ)): 7.00%
Particle size distribution (% Retention) ([3]; ASTM # 60 mesh (250μ)): 33.00%
Particle size distribution (% Retention) ([3]; ASTM # 80 mesh (177μ)): 18.00%
Particle size distribution (% Retention) ([3]; ASTM # 100 mesh (149μ)): 16.00%
Particle size distribution (% Retention) ([3]; ASTM # 200 mesh (75μ)): 21.00%
Particle size distribution (% Retention) ([3]; Pan): 5.00%
Loss on drying ([3]; at 105° C. for 5 minutes): 0.400 % w/w
